{
  "source": "patent US20220218776A1",
  "about": "“COMPOSITION FOR USE IN A METHOD FOR PREVENTION OR TREATMENT OF MALTNUTRITION IN A SUBJECT SUFFERING FROM A CHRONIC INFLAMMATORY BOWEL DISEASES” (SOFAR S.P.A., priority 2019, published 2022)",
  "tested_on": "pro-inflammatory patterns typical of IBD",
  "assay": "depression of pro-inflammatory patterns typical of IBD",
  "settings": "administered alone",
  "from_the_text": "According to an aspect of the invention, the casein (ii) contained in the mixture (M), together with (i), (iii) and (iv) (according to any of the described embodiments), is a micellar casein, i.e. in the native form thereof.",
  "data": [
    {"substance": "casein", "values": [
      {"measurement": "pro-inflammatory patterns typical of IBD", "result": "capable of depressing pro-inflammatory patterns typical of IBD"}
    ]}
  ]
}
